These results are taken from patent US20240034736A1, “HSD17B13 INHIBITORS AND USES THEREOF” (FL2022-001, Inc., priority 2020, published 2024).

A value given as a limit tells only on which side of the number the result lay.

One may read the IC50 as the concentration at which inhibition is half-maximal. In general, inhibition refers to the percentage by which the read-out fell short of the control.

In the first test the target is Recombinant human HSD17B13 enzyme (Homo sapiens (Human), UniProt Q7Z5P4). Nature of the test: HSD17b13 NAD(P)H-Glo Biochemical Assay. Particulars: 50 uM estradiol, 1 mM NAD+; read-out: HSD17β13 IC50. As to the method: Recombinant human HSD17B13 enzyme. Substrate: estradiol (Sigma β-Estradiol E8875), 100 mM in DMSO. […] Assay buffer final concentration: 20 mM Tris pH7.4 with 0.002% Tween-20 and 0.02% BSA. […] Enzymatic activity detected by NAD(P)H-Glo™ Detection System (Promega G9062).
Recombinant human HSD17B13 enzyme, sequence (Q7Z5P4 20-300): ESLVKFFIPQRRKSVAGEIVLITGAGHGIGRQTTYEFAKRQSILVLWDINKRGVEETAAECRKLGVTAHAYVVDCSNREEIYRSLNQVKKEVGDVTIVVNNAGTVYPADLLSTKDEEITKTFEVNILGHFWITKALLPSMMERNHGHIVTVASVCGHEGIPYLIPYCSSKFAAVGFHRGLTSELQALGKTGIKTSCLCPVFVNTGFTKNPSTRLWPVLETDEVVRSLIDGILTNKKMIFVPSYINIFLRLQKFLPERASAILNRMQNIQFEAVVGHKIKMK
Inhibitor compounds were serially diluted in DMSO and then further diluted in assay buffer to a 10× concentration consisting of 1% DMSO.
HSD17b13 enzyme was diluted in 1× assay buffer to the desired enzyme concentration based on the specific activity of the enzyme lot. 20 uL of diluted enzyme was added to each well along with 2.5 uL of 10× inhibitor solution. Assay plate was incubated at RT for 20 minutes, and then 2.5 uL of a 10× substrate/cofactor mix was added to each well for a final concentration of 50 uM estradiol and 1 mMNAD+. Assay plate was incubated at 37° C. for 3 hours. NAD(P)H-Glo™ Detection System reagents were prepared according to manufacturer's specifications, and 25 uL was added to each well. After incubating for 1 hour at RT, luminescence was measured.
As to `CN(C)C(=O)c1ccc(-c2ccc3c(cnn3-c3ccc(F)c(O)c3)c2)c(Cl)c1` [Compound 5.10, 3-Chloro-4-(1-(4-fluoro-3-hydroxyphenyl)-1H-indazol-5-yl)-N,N-dimethylbenzamide], the IC50 was in the range of 100 to 1000 nM.
Still for that read-out and setting: with `Cc1nn(-c2cc(C(F)(F)F)c(F)c(O)c2F)c2cc(F)c(N(C)C3CCOCC3)cc12` [Compound 19.68, 2,6-Difluoro-3-(6-fluoro-3-methyl-5-(methyl(tetrahydro-2H-pyran-4-yl)amino)-1H-indazol-1-yl)-5-(trifluoromethyl)phenol] the figure was under 100 nM; with `N#Cc1ccc(-c2ccc3c(cnn3-c3ccc(F)c(O)c3)c2)c(Cl)c1` [Compound 5.11, 3-Chloro-4-(1-(4-fluoro-3-hydroxyphenyl)-1H-indazol-5-yl)benzonitrile], 100 to 1000 nM; with `O=S(=O)(NC1CN(c2cc3cnn(-c4cc(O)c(F)c(F)c4)c3cc2Cl)C1)c1ccccc1` [Compound 21.34, N-(1-(6-Chloro-1-(3,4-difluoro-5-hydroxyphenyl)-1H-indazol-5-yl)azetidin-3-yl)benzene-sulfonamide], 100 to 1000 nM.
In the case of `O=C(O)CCOc1ccc(-c2ccc3c(cnn3-c3ccc(F)c(O)c3)c2)cc1` [Compound 15, 3-(4-(1-(4-Fluoro-3-hydroxyphenyl)-1H-indazol-5-yl)phenoxy)propanoic acid], the half-inhibitory concentration (IC50) is 1000 to 30000 nM.
As for `Cc1nn(-c2cc(C(F)(F)F)c(F)c(O)c2F)c2cnc(N3CC(C)(C)OC(C)(C)C3)nc12` [Compound 19.79, 2,6-Difluoro-3-(3-methyl-5-(2,2,6,6-tetramethylmorpholino)-1H-pyrazolo[4,3-d]pyrimidin-1-yl)-5-(trifluoromethyl)phenol], the IC50 was under 100 nM.
Same read-out and setting: under `CS(=O)(=O)N1CCN(c2cc3c(C4CC4)nn(-c4cc(O)c(F)c(C(F)(F)F)c4)c3cn2)CC1` [Compound 21.51, 5-(3-Cyclopropyl-5-(4-(meth-ylsulfonyl)piperazin-1-yl)-1H-pyrazolo[3,4-c]pyridine-1-yl)-2-fluoro-3-(trifluoromethyl)-phenol] stands 100 to 1000 nM; under `CCc1nn(-c2cc(C(F)(F)F)c(F)c(O)c2F)c2ccc(N(C)C3CCOCC3)cc12` [Compound 19.73, 3-(3-Ethyl-5-(methyl(tetrahydro-2H-pyran-4-yl)amino)-1H-indazol-1-yl)-2,6-difluoro-5-(trifluoromethyl)phenol], 100 to 1000 nM.
Still for that read-out and setting: with `CN(c1ccc2c(cnn2-c2cc(C(F)(F)F)c(F)c(O)c2F)c1)C1CCOCC1` [Compound 19.70, 2,6-Difluoro-3-(5-(methyl(tetrahydro-2H-pyran-4-yl)amino)-1H-indazol-1-yl)-5-(trifluoromethyl)phenol] the figure was under 100 nM; with `Cc1nn(-c2cc(C(F)(F)F)c(F)c(O)c2F)c2cnc(N3CCN(c4cnn(C)c4)CC3)cc12` [Compound 19.64, 2,6-Difluoro-3-(3-methyl-5-(4-(1-methyl-1H-pyrazol-4-yl)piperazin-1-yl)-1H-pyrazolo[3,4-c]pyridin-1-yl)-5-(trifluoromethyl)phenol], 100 to 1000 nM.
Same read-out and setting: under `CC(C)S(=O)(=O)N1CCN(c2ccc3c(cnn3-c3cc(O)c(F)c(F)c3)c2)CC1` [Compound 21.04, 2,3-Difluoro-5-(5-(4-(isoprop-ylsulfonyl)piperazin-1-yl)-1H-indazol-1-yl)phenol] stands 100 to 1000 nM; under `Cc1nn(-c2cc(C(F)(F)F)c(F)c(O)c2F)c2cnc(N3CCOCC34CCC4)cc12` [Compound 19.65, 2,6-Difluoro-3-(3-methyl-5-(8-oxa-5-azaspiro[3.5]nonan-5-yl)-1H-pyrazolo[3,4-c]pyridin-1-yl)-5-(trifluoromethyl)phenol], under 100 nM; under `CS(=O)(=O)N1CCN(c2cc3cn(-c4cc(O)cc(OC(F)(F)F)c4)nc3cn2)CC1` [Compound 19.13, 3-(5-(4-(Methylsulfonyl)piperazin-1-yl)-2H-pyrazolo[3,4-c]pyridin-2-yl)-5-(trifluoromethoxy)phenol], 1000 to 30000 nM.
Consider `O=S(=O)(CC1CC1)NC1CN(c2cc3cnn(-c4cc(O)c(F)c(F)c4)c3cc2Cl)C1` [Compound 21.37, N-(1-(6-Chloro-1-(3,4-difluoro-5-hydroxyphenyl)-1H-indazol-5-yl)azetidin-3-yl)-1-cyclo-propylmethanesulfonamide], for which the concentration for half-maximal inhibition (IC50) was 100 to 1000 nM.
On the same count and under the same terms, under `Cc1ccccc1-c1ccc2c(cnn2-c2ccc(F)c(O)c2)c1` [Compound 4.12, 2-Fluoro-5-(5-(o-tolyl)-1H-indazol-1-yl)phenol] stands 100 to 1000 nM.
On the same count and under the same terms, under `CN(c1ccc2c(c1)c(C#N)nn2-c1cc(C(F)(F)F)c(F)c(O)c1F)C1CCOCC1` [Compound 19.90, 1-(2,4-Difluoro-3-hydroxy-5-(trifluoromethyl)phenyl)-5-(methyl(tetrahydro-2H-pyran-4-yl)amino)-1H-indazole-3-carbonitrile] stands 100 to 1000 nM; under `COc1ccc(-c2ccc3c(cnn3-c3ccc(F)c(O)c3)c2)cc1Cl` [Compound 2, 5-(5-(3-Chloro-4-methoxyphenyl)-1H-indazol-1-yl)-2-fluorophenol], 100 to 1000 nM; under `Cc1nn(-c2cc(C(F)(F)F)c(F)c(O)c2F)c2cnc(N3CCNCC3)nc12` [Compound 19.118, 2,6-Difluoro-3-(3-methyl-5-(piperazin-1-yl)-1H-pyrazolo[4,3-d]pyrimidin-1-yl)-5-(trifluoromethyl)phenol], 1000 to 30000 nM.
The same measure, in the same setting: with `CC(=O)Nc1ccc(-c2ccc3c(cnn3-c3ccc(F)c(O)c3)c2)c(Cl)c1` [Compound 5.18, N-(3-Chloro-4-(1-(4-fluoro-3-hydroxyphenyl)-1H-indazol-5-yl)phenyl)acetamide] the figure was 100 to 1000 nM; with `CNC(=O)c1nn(-c2cc(C(F)(F)F)c(F)c(O)c2F)c2ccc(N(C)C3CCOCC3)cc12` [Compound 19.112, 1-(2,4-Difluoro-3-hydroxy-5-(trifluoromethyl)phenyl)-N-methyl-5-(methyl(tetrahydro-2H-pyran-4-yl)amino)-1H-indazole-3-carboxamide], 1000 to 30000 nM; with `COC1CCN(c2ccc3c(cnn3-c3cc(O)c(F)c(F)c3)c2)CC1` [Compound 21.20, 2,3-Difluoro-5-(5-(4-methoxy-piperidin-1-yl)-1H-indazol-1-yl)phenol], 100 to 1000 nM.
As for `CS(=O)(=O)N1CCN(c2cc3cnn(-c4cc(O)c(Cl)c(F)c4)c3cn2)CC1` [Compound 19.17, 2-Chloro-3-fluoro-5-(5-(4-(methylsulfonyl)piperazin-1-yl)-1H-pyrazolo[3,4-c]pyridine-1-yl)phenol], the IC50 fell in the range of 1000 to 30000 nM.
The same measure, in the same setting: under `CS(=O)(=O)N1CCN(c2cc3cnn(-c4ccc(Cl)c(O)c4)c3cn2)CC1` [Compound 19.14, 2-Chloro-5-(5-(4-(methylsulfonyl)piperazin-1-yl)-1H-pyrazolo[3,4-c]pyridine-1-yl)phenol] stands 1000 to 30000 nM; under `Cc1nn(-c2cc(O)c(F)c(C(C)O)c2)c2cnc(N3CCOCC34CC4)cc12` (centres unmarked) [Compound 19.97, 2-Fluoro-3-(1-hydroxyethyl)-5-(3-methyl-5-(7-oxa-4-azaspiro[2.5]octan-4-yl)-1H-pyrazolo[3,4-c]pyridin-1-yl)phenol], 1000 to 30000 nM.
As to `CS(=O)(=O)N1CCN(c2cc3cnn(-c4cc(O)c(F)c(C(F)(F)F)c4)c3cc2Cl)CC1` [Compound 19, 5-(6-Chloro-5-(4-(methylsulfonyl)piperazin-1-yl)-1H-indazol-1-yl)-2-fluoro-3-(trifluoromethyl)phenol], the IC50 was under 100 nM.
Same read-out and setting: with `CN(c1ccc2c(c1)c(N)nn2-c1cc(C(F)(F)F)c(F)c(O)c1F)C1CCOCC1` [Compound 19.93, 3-(3-Amino-5-(methyl(tetrahydro-2H-pyran-4-yl)amino)-1H-indazol-1-yl)-2,6-difluoro-5-(trifluoromethyl)phenol] the figure was 100 to 1000 nM; with `CS(=O)(=O)N1CCN(c2cc3cnn(-c4cc(O)ccc4C#N)c3cn2)CC1` [Compound 19.41, 4-Hydroxy-2-(5-(4-(methylsulfonyl)piperazin-1-yl)-1H-pyrazolo[3,4-c]pyridine-1-yl)benzonitrile], 1000 to 30000 nM; with `Oc1ccc(-c2ccc3c(cnn3-c3ccc(C(F)(F)F)c(O)c3)c2)cc1Cl` [Compound 3.02, 2-Chloro-4-(1-(3-hydroxy-4-(trifluoromethyl)phenyl)-1H-indazol-5-yl)phenol], 1000 to 30000 nM.
Still for that read-out and setting: with `CC1(C)CN(c2ccc3c(cnn3-c3cc(O)c(F)c(F)c3)c2)CCN1S(C)(=O)=O` [Compound 21.29, 5-(5-(3,3-Dimethyl-4-(methyl-sulfonyl)piperazin-1-yl)-1H-indazol-1-yl)-2,3-difluoro-phenol] the figure was 100 to 1000 nM; with `Oc1cccc(-n2ncc3cc(-c4ccc(O)c(Cl)c4)ccc32)c1` [Compound 3.05, 2-Chloro-4-(1-(3-hydroxyphenyl)-1H-indazol-5-yl)phenol], 1000 to 30000 nM; with `CC(C)c1nn(-c2cc(C(F)(F)F)c(F)c(O)c2F)c2ccc(N(C)C3CCOCC3)cc12` [Compound 19.74, 2,6-Difluoro-3-(3-isopropyl-5-(methyl(tetrahydro-2H-pyran-4-yl)amino)-1H-indazol-1-yl)-5-(trifluoromethyl)phenol], 100 to 1000 nM.

The test is the same for the next values; noted with them: read-out: HSD17β13 inhibition at 30 uM.
Take `CS(=O)(=O)N1CCN(c2cc3cnn(-c4ccc(C#N)c(O)c4)c3cn2)CC1` [Compound 19.36, 2-Hydroxy-4-(5-(4-(methylsulfonyl)piperazin-1-yl)-1H-pyrazolo[3,4-c]pyridine-1-yl)benzonitrile]: the inhibition at 30 µM is 40%.
